Test results as given in ChEMBL document CHEMBL4480430, “Advances in inhibition of protein-protein interactions targeting hypoxia-inducible factor-1 for cancer therapy” (Bioorg Med Chem, 2019).
Numbered stars: 1 amine (or outer) side, 2 acyl side, 3 side chain; on linkers, the order of the positions; unused ones are H or OH. Square brackets hold non-standard residues; d marks the D form. Peptide text beside a SMILES is read from it. 4Abz(3-OiBu) = CC(C)COc1cc(C(=O)[*:2])ccc1N[*:1]; X3 = CC(C)Oc1cc(C(=O)[*:2])ccc1N[*:1]

Key:
[1] = biological target: T1, Histone acetyltransferase p300 (Homo sapiens, UniProt Q09472); assay: Binding affinity to human p300 CH1 domain (330 to 420 residues) expressed in Escherichia coli BL21(DE3) by fluorescence anisotropy competition assay
T1 sequence (Q09472 whole entry, the tested form may be a part): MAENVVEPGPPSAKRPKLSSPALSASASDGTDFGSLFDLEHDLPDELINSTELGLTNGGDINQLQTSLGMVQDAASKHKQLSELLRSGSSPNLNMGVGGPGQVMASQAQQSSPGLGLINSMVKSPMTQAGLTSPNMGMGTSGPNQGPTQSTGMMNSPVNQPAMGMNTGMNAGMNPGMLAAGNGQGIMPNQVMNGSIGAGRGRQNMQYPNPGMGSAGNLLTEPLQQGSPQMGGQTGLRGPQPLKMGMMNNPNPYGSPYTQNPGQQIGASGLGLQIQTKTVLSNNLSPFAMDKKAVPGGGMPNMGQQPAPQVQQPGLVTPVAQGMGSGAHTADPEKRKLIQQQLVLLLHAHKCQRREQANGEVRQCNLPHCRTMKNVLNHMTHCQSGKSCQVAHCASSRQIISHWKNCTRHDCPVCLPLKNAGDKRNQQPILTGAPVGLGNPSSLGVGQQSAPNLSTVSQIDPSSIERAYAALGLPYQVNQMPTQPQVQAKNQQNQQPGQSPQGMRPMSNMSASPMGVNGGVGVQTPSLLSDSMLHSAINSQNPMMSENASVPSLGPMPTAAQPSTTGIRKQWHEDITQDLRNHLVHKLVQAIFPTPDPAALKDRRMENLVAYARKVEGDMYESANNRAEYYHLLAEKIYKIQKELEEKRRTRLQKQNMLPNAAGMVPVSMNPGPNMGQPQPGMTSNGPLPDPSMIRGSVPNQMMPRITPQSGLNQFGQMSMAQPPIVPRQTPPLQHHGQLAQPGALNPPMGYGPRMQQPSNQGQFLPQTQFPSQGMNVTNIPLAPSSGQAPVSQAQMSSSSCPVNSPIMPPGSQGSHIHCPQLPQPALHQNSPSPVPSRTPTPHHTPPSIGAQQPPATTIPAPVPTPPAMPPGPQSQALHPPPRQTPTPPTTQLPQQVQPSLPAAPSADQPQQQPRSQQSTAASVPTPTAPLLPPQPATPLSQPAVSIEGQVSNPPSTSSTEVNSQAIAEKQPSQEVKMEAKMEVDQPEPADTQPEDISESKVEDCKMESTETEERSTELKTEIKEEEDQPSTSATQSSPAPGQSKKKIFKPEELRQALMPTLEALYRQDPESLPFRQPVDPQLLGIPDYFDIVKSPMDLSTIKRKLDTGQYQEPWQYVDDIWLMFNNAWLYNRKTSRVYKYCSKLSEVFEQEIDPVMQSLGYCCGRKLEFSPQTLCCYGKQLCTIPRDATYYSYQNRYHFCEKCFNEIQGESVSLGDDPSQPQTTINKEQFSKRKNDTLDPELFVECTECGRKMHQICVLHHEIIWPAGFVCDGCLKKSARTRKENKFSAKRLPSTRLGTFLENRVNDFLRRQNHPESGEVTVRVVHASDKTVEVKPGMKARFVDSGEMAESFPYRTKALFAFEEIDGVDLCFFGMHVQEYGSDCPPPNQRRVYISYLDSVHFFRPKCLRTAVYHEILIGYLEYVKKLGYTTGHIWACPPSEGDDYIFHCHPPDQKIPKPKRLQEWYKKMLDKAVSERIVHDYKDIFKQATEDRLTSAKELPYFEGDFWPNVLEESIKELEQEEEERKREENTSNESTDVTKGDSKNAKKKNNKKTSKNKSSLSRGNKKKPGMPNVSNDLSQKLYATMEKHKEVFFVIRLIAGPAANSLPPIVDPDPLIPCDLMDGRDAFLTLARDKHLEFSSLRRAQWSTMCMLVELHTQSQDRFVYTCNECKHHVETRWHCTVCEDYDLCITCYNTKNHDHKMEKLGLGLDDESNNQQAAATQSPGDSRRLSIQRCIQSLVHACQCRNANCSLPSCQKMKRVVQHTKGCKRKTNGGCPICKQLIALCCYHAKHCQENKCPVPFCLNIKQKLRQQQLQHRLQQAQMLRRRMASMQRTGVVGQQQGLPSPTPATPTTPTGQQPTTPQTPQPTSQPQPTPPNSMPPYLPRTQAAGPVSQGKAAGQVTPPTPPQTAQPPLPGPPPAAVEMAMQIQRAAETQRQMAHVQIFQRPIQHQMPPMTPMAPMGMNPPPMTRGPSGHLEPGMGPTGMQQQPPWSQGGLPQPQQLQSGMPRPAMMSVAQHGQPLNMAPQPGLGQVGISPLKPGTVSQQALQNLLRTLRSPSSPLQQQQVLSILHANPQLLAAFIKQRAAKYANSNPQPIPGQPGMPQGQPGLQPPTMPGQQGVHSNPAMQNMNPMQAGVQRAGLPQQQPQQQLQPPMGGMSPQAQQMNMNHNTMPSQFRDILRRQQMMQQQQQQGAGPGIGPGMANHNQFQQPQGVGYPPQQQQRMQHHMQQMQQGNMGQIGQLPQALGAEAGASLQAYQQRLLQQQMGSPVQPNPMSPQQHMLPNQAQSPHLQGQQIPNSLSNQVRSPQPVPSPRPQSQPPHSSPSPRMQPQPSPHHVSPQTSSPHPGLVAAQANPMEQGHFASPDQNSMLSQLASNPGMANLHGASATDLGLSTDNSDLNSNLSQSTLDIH

MDA-MB-231 = assay: Antitumor activity against human MDA-MB-231 cells xenografted in mouse assessed as reduction in tumor volume at 15 mg/kg administered on alternative days for 28 days relative to control; format: functional; parameters: scale not given: the % may be the effect or the level left
[2] = biological target: T2, Histone acetyltransferase p300/Hypoxia-inducible factor 1-alpha (Homo sapiens, UniProt Q09472+Q16665); assay: Inhibition of HIF-1alpha (unknown origin)/p300 (unknown origin) protein-protein interaction by fluorescence anisotropy; format: protein-complex assay
Target sequence in this assay (Q09472 whole entry, the tested form may be a part): as above
Target sequence in this assay (Q16665 whole entry, the tested form may be a part): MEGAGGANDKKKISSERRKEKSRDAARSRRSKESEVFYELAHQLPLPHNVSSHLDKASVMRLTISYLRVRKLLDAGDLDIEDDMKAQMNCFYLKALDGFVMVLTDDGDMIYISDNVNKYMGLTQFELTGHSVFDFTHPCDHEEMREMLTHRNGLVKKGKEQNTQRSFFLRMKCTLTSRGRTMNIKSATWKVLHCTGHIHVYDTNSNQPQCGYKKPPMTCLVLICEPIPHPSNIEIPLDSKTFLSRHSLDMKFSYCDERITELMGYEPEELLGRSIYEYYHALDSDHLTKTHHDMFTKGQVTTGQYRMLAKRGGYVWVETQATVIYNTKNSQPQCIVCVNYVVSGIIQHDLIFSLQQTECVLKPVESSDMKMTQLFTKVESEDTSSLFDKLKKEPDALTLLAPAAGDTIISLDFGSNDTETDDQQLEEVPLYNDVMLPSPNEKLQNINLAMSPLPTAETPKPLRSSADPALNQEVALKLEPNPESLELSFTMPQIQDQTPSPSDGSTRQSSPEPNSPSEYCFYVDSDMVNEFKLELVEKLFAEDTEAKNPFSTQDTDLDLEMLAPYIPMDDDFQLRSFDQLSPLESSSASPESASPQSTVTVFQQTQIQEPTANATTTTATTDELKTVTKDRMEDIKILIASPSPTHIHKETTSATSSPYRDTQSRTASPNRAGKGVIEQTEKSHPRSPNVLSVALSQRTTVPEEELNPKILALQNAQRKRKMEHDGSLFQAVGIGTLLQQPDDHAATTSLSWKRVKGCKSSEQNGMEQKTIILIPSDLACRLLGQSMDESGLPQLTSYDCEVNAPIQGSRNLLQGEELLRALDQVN

[3] = biological target: T2, Histone acetyltransferase p300/Hypoxia-inducible factor 1-alpha; assay: Inhibition of fluorescein-labeled HIF-1alpha (786 to 826 residues) (unknown origin)/GST-fused p300 CH1 domain (323 to 423 residues) (unknown origin) protein-protein interaction after overnight incubation by time-resolved fluorescence assay; format: protein-complex assay
Target sequence in this assay (Q09472 whole entry, the tested form may be a part): as the sequence (Q09472 whole entry, the tested form may be a part) above
Target sequence in this assay (Q16665 whole entry, the tested form may be a part): as the sequence (Q16665 whole entry, the tested form may be a part) above

[4] = biological target: T3, Hypoxia-inducible factor 1-alpha (Homo sapiens, UniProt Q16665); assay: Binding affinity to His-tagged HIF-1alpha (1 to 350 residues) (unknown origin) PAS B domain expressed in Escherichia coli BL21(DE3) by ITC
[5] = biological target: T2, Histone acetyltransferase p300/Hypoxia-inducible factor 1-alpha; assay: Inhibition of HIF-1alpha (unknown origin)/p300 (unknown origin) protein-protein interaction; format: protein-complex assay
Target sequence in this assay (Q09472 whole entry, the tested form may be a part): as the sequence (Q09472 whole entry, the tested form may be a part) above
Target sequence in this assay (Q16665 whole entry, the tested form may be a part): as the sequence (Q16665 whole entry, the tested form may be a part) above

[6] = biological target: T3, Hypoxia-inducible factor 1-alpha; assay: Inhibition of HIF-1 dimerization in HEK293 cells after 24 hrs by renilla luciferase reporter gene assay; format: cell-based
[7] = biological target: T3, Hypoxia-inducible factor 1-alpha; assay: Binding affinity to HIF-1alpha (unknown origin) PAS B domain assessed as incorporation at Cys255 residues by mass spectrometry; parameters: concentration or dose not given beside the values
Target sequence in this assay (Q16665 whole entry, looked up, the tested form may be a part): as the sequence (Q16665 whole entry, the tested form may be a part) above

[8] = biological target: T2, Histone acetyltransferase p300/Hypoxia-inducible factor 1-alpha; assay: Inhibition of human fluorescein-labeled HIF-1alpha (786 to 826 residues)/ human GST-fused p300 CH1 domain (323 to 423 residues) protein-protein interaction after 1 hr by fluorescence polarization assay; format: protein-complex assay
Target sequence in this assay (Q09472 whole entry, the tested form may be a part): as the sequence (Q09472 whole entry, the tested form may be a part) above
Target sequence in this assay (Q16665 whole entry, the tested form may be a part): as the sequence (Q16665 whole entry, the tested form may be a part) above

[9] = biological target: T1, Histone acetyltransferase p300; assay: Binding affinity to human GST-fused p300 CH1 domain (323 to 423 residues) under hypoxic condition by SPR assay
[10] = biological target: T2, Histone acetyltransferase p300/Hypoxia-inducible factor 1-alpha; assay: Inhibition of HIF-1alpha/p300 protein-protein interaction in human cells after 2 hrs by immunoprecipitation assay; format: cell-based
Target sequence in this assay (Q09472 whole entry, the tested form may be a part): as the sequence (Q09472 whole entry, the tested form may be a part) above
Target sequence in this assay (Q16665 whole entry, the tested form may be a part): as the sequence (Q16665 whole entry, the tested form may be a part) above

[11] = biological target: T3, Hypoxia-inducible factor 1-alpha; assay: Binding affinity to HIF-1alpha (unknown origin) PAS B domain assessed as incorporation at His246 residues by mass spectrometry
Target sequence in this assay (Q16665 whole entry, looked up, the tested form may be a part): as the sequence (Q16665 whole entry, the tested form may be a part) above

[12] = biological target: T3, Hypoxia-inducible factor 1-alpha; assay: Binding affinity to HIF-1alpha (unknown origin) PAS B domain assessed as incorporation at Lys297 residues by mass spectrometry
Target sequence in this assay (Q16665 whole entry, looked up, the tested form may be a part): as the sequence (Q16665 whole entry, the tested form may be a part) above

[13] = biological target: T3, Hypoxia-inducible factor 1-alpha; assay: Binding affinity to C-terminal Avi/FLAG-tagged HIF-1alpha (unknown origin) assessed as incorporation at His266 residues by mass spectrometry
Target sequence in this assay (Q16665 whole entry, looked up, the tested form may be a part): as the sequence (Q16665 whole entry, the tested form may be a part) above

[14] = biological target: T3, Hypoxia-inducible factor 1-alpha; assay: Binding affinity to HIF-1alpha (unknown origin) PAS B domain assessed as incorporation at Cys334 residues by mass spectrometry
Target sequence in this assay (Q16665 whole entry, looked up, the tested form may be a part): as the sequence (Q16665 whole entry, the tested form may be a part) above

[15] = biological target: T2, Histone acetyltransferase p300/Hypoxia-inducible factor 1-alpha; assay: Inhibition of fluorescein-labeled HIF-1alpha (786 to 826 residues) (unknown origin)/GST-fused p300 CH1 domain (323 to 423 residues) (unknown origin) protein-protein interaction at 500 uM after overnight incubation by time-resolved fluorescence assay relative to control; format: protein-complex assay
[16] = biological target: T1, Histone acetyltransferase p300; assay: Binding affinity to p300 CH1 domain (unknown origin) by tryptophan fluorescence assay
[17] = biological target: T3, Hypoxia-inducible factor 1-alpha; assay: Binding affinity to Cys255 residue of C-terminal Avi/FLAG-tagged HIF-1alpha (unknown origin) after 1 hr by AlphaScreen assay
[18] = biological target: T1, Histone acetyltransferase p300; assay: Binding affinity to p300 (unknown origin) by fluorescence anisotrophy

CC(C)COc1cc(C(=O)O)ccc1NC(=O)c1ccc(NC(=O)c2ccc(N)c(OC(C)C)c2)c(OCC(C)C)c1
IC50 [1]: 24000 nM

CC(C)C[C@@H]1NCCN([C@@H](CC(C)C)C(=O)N2CCN([C@@H](CCC(N)=O)C(N)=O)C(=O)[C@@H]2C)C1=O
Activity (MDA-MB-231): 50%

CC[C@H](C)[C@H](NC(=O)[C@@H]1CCCN1C(=O)[C@H](C)NC(=O)[C@H](CC(N)=O)NC(=O)[C@@H](NC(=O)[C@H](CCC(=O)O)NC(=O)[C@H](CO)NC(=O)[C@H](CC(=O)O)NC(=O)[C@H](Cc1ccc(O)cc1)NC(=O)[C@H](CO)NC(=O)[C@@H](NC(=O)[C@H](CC(C)C)NC(=O)[C@@H](N)CCC(N)=O)[C@@H](C)O)C(C)C)C(=O)N[C@@H](CCC(N)=O)C(=O)NCC(=O)N[C@@H](CO)C(=O)N[C@@H](CCCNC(=N)N)C(=O)N[C@@H](CC(N)=O)C(=O)N[C@@H](CC(C)C)C(=O)N[C@@H](CC(C)C)C(=O)N[C@@H](CCC(N)=O)C(=O)NCC(=O)Nc1ccc(C(=O)Nc2ccc(C(=O)Nc3ccc(C(=O)NCC(N)=O)cc3OC(C)C)cc2OCC(C)C)cc1OCC(C)C (H-QLTSYDSEVNAPIQGSRNLLQG[4Abz(3-OiBu)][4Abz(3-OiBu)][X3]G-NH2)
IC50 [2]: 83000 nM

COc1ccc([C@@]2(c3nc(N)[nH]c3-c3ccc(O)cc3)N=C3N=CC=C4c5ccccc5N=C2N43)cc1
IC50 [3]: 276000 nM

CC(C)C[C@@H]1NC(=O)[C@H](CS)NC(=O)[C@H](Cc2ccc(O)cc2)NC(=O)[C@H](C(C)C)NC(=O)[C@H](Cc2ccccc2)NC(=O)[C@H](CC(C)C)NC1=O
Kd [4]: 124 nM

H-QLTSYDCEVNAPIQGSRNLLQGEELLRALDQVN-OH
IC50 [2]: 89000 nM

COc1ccc(S(=O)(=O)N(Cc2ccc(CN3CCOCC3)cc2)c2ccccc2)cc1OC
IC50 [5]: 900 nM

C[n+]1c2cc(N)ccc2cc2ccc(N)cc21 [EUFLAVINE]
IC50 [6]: 1000 nM

C=CC(=O)N1CCc2ccccc21
Activity [7]: 25%

CN1C(=O)[C@@]2(Cc3ccc(C[C@]45SS[C@](CO)(C(=O)N4C)N(C)C5=O)cc3)SS[C@]1(CO)C(=O)N2C
IC50 [8]: 1500 nM | Kd [9]: 750 nM

CN1C(=O)[C@]2(Cc3cn([C@]45C[C@@]67SS[C@@](CO)(C(=O)N6[C@H]4Nc4ccccc45)N(C)C7=O)c4ccccc34)SS[C@@]1(CO)C(=O)N2C [CHETOMIN]
IC50 [10]: 540 nM

COc1ccc(S(=O)(=O)N(Cc2ccc(CN3CCOCC3)cc2)C2CCC2)cc1OC
IC50 [5]: 1000 nM

COc1ccc(S(=O)(=O)N(Cc2ccc3c(n2)C=CC(C)(C)O3)C2CCC2)cc1OC
IC50 [5]: 280 nM

CN1C(=O)[C@@]2(Cc3ccc(CCc4ccc(C[C@@]56SS[C@@](CO)(C(=O)N5C)N(C)C6=O)cc4)cc3)NC(=O)[C@]1(CO)SS2
IC50 [8]: 600 to 700 nM | Kd [9]: 3620 nM

COC(=O)/C=C1/OC(c2ccc(O)cc2)=CC1=O
Activity [11]: 10 to 20% | Activity [12]: 10 to 20% | Activity [13]: 10 to 20% | Activity [14]: 10 to 20% | Activity [7]: > 50%

COc1ccc([C@]2(c3nc(N)[nH]c3-c3ccc(O)cc3)N=C3N=CC=C4c5ccccc5N=C2N43)cc1
inhibition [15]: 27%

CC(C)COc1cc(C(=O)Nc2ccc(C(=O)Nc3ccc(C(=O)O)cc3OC(C)C)cc2OCC(C)C)ccc1N
IC50 [1]: 9190 nM

CCCC[C@@H](C(=O)N1CCN([C@@H](CCC(N)=O)C(N)=O)C(=O)[C@@H]1C)N1CCN[C@@H](CC(C)C)C1=O
Kd [16]: 30000 nM

O=[N+]([O-])c1ccc2c(c1)S(=O)(=O)C=C2
IC50 [17]: 43 nM | Activity [7]: > 50%

CN1C(=O)[C@@]23C[C@]4([C@]56C[C@@]78SS[C@@](CO)(C(=O)N7[C@H]5Nc5ccccc56)N(C)C8=O)c5ccccc5N[C@@H]4N2C(=O)[C@]1(CO)SS3 [CHAETOCIN]
IC50 [5]: 12500 nM

H-QLTSYDCEVNA-OH
Kd [18]: 6740 nM

COc1ccc(S(=O)(=O)N(Cc2ccc3c(c2)C=CC(C)(C)O3)c2ccccc2)cc1OC
IC50 [5]: 590 nM

CC1=CC(O)(C#Cc2ccccc2)C=CC1=O (centres undefined)
Activity [11]: 10 to 20% | Activity [12]: 10 to 20% | Activity [13]: 10 to 20% | Activity [14]: 10 to 20% | Activity [7]: > 50%

C=C1C(=O)OC2C1CCC(=C)C1CC(=O)C(=C)C12 (centres undefined)
Activity [11]: 10 to 20% | Activity [12]: 10 to 20% | Activity [13]: 10 to 20% | Activity [14]: 10 to 20% | Activity [7]: > 50%
